# Measurements reported in paper PMC4806784 (Investigational new drugs, 2015).
# Experiment: Safety and tolerability
# Type: in vivo
# [1] = Crossover from Panel 1 to Panel 2 (n = 4)
structure (smiles),measurement,setting,value
O=C(O)[C@]1(Cc2cccc(Nc3nccs3)n2)CC[C@@H](Oc2cccc(Cl)c2F)CC1 [MK-5108],Drug-related AEs by SOC: Blood and lymphatic system disorders,Crossover (N = 4),2 (50.0) n (%)
same,Drug-related AEs by SOC: Gastrointestinal disorders,Crossover (N = 4),1 (25.0) n (%)
same,Drug-related AEs by SOC: General disorders and administration site conditions,Crossover (N = 4),2 (50.0) n (%)
same,Drug-related AEs by SOC: Infections and infestations,Crossover (N = 4),0 (0.0) n (%)
same,Drug-related AEs by SOC: Investigations,Crossover (N = 4),1 (25.0) n (%)
same,Drug-related AEs by SOC: Metabolism and nutrition disorders,Crossover (N = 4),2 (50.0) n (%)
same,Drug-related AEs by SOC: Musculoskeletal and connective tissue disorders,Crossover (N = 4),1 (25.0) n (%)
same,Drug-related AEs by SOC: Nervous system disorders,Crossover (N = 4),1 (25.0) n (%)
same,"Drug-related AEs by SOC: Respiratory, thoracic and mediastinal disorders",Crossover (N = 4),1 (25.0) n (%)
same,Drug-related AEs by SOC: Skin and subcutaneous tissue disorders,Crossover (N = 4),1 (25.0) n (%)
same,Drug-related AEs by SOC: Vascular disorders,Crossover (N = 4),0 (0.0) n (%)
same,"Patients with drug-related AEs, highest grade: Grade 1",Crossover (N = 4),1 (25.0) n (%)
same,"Patients with drug-related AEs, highest grade: Grade 2",Crossover (N = 4),0 (0.0) n (%)
same,"Patients with drug-related AEs, highest grade: Grade 3",Crossover (N = 4),1 (25.0) n (%)
same,"Patients with drug-related AEs, highest grade: Grade 4",Crossover (N = 4),1 (25.0) n (%)
same,Patients with no drug-related AEs,Crossover (N = 4),1 (25.0) n (%)
same,Patients with one or more drug-related AEs,Crossover (N = 4),3 (75.0) n (%)
same,Death,[1],0 n (%)
same,Discontinued treatment due to a drug-related AE,[1],0 n (%)
same,Discontinued treatment due to a drug-related SAE,[1],0 n (%)
same,Discontinued treatment due to an SAE,[1],0 n (%)
same,Discontinued treatment due to any AE,[1],0 n (%)
same,Patients with any AE,[1],4 (100.0) n (%)
same,Patients with drug-related AE,[1],3 (75.0) n (%)
same,Patients with no AE,[1],0 n
same,Patients with serious AE,[1],0 n (%)
same,Patients with serious drug-related AE,[1],0 n (%)
same,MTD,"MK-5108 MT, doses up to 1800 mg Q12hr",not established
same,tolerability,"MT, doses up to 1800 mg Q12hr (3600 mg/day)",generally well tolerated
same,patients experiencing a DLT,Panel 1 (MT),no patients
same,patients with a Grade 3 or 4 drug-related AE,Panel 1 (MT),No patients
same,AEs (all grades and doses) by SOC: General disorders and administration site conditions,"Panel 1 (MT), 11/14",78.6%
same,AEs (all grades and doses) by SOC: Gastrointestinal disorders,"Panel 1 (MT), 12/14",85.7%
same,Drug-related AEs by SOC: Blood and lymphatic system disorders,Panel 1: MK-5108 MT (N = 14),4 (28.6) n (%)
same,Drug-related AEs by SOC: Gastrointestinal disorders,Panel 1: MK-5108 MT (N = 14),7 (50.0) n (%)
same,Drug-related AEs by SOC: General disorders and administration site conditions,Panel 1: MK-5108 MT (N = 14),7 (50.0) n (%)
same,Drug-related AEs by SOC: Infections and infestations,Panel 1: MK-5108 MT (N = 14),0 (0.0) n (%)
same,Drug-related AEs by SOC: Investigations,Panel 1: MK-5108 MT (N = 14),2 (14.3) n (%)
same,Drug-related AEs by SOC: Metabolism and nutrition disorders,Panel 1: MK-5108 MT (N = 14),2 (14.3) n (%)
same,Drug-related AEs by SOC: Musculoskeletal and connective tissue disorders,Panel 1: MK-5108 MT (N = 14),1 (7.1) n (%)
same,Drug-related AEs by SOC: Nervous system disorders,Panel 1: MK-5108 MT (N = 14),3 (21.4) n (%)
same,"Drug-related AEs by SOC: Respiratory, thoracic and mediastinal disorders",Panel 1: MK-5108 MT (N = 14),1 (7.1) n (%)
same,Drug-related AEs by SOC: Skin and subcutaneous tissue disorders,Panel 1: MK-5108 MT (N = 14),1 (7.1) n (%)
same,Drug-related AEs by SOC: Vascular disorders,Panel 1: MK-5108 MT (N = 14),0 (0.0) n (%)
same,"Patients with drug-related AEs, highest grade: Grade 1",Panel 1: MK-5108 MT (N = 14),3 (21.4) n (%)
same,"Patients with drug-related AEs, highest grade: Grade 2",Panel 1: MK-5108 MT (N = 14),5 (35.7) n (%)
same,"Patients with drug-related AEs, highest grade: Grade 3",Panel 1: MK-5108 MT (N = 14),0 (0.0) n (%)
same,"Patients with drug-related AEs, highest grade: Grade 4",Panel 1: MK-5108 MT (N = 14),0 (0.0) n (%)
same,Patients with no drug-related AEs,Panel 1: MK-5108 MT (N = 14),6 (42.9) n (%)
same,Patients with one or more drug-related AEs,Panel 1: MK-5108 MT (N = 14),8 (57.1) n (%)
same,Death,Panel 1: MK-5108 MT (n = 14),1 (7.1) n (%)
same,Discontinued treatment due to a drug-related AE,Panel 1: MK-5108 MT (n = 14),0 n (%)
same,Discontinued treatment due to a drug-related SAE,Panel 1: MK-5108 MT (n = 14),0 n (%)
same,Discontinued treatment due to an SAE,Panel 1: MK-5108 MT (n = 14),1 (7.1) n (%)
same,Discontinued treatment due to any AE,Panel 1: MK-5108 MT (n = 14),2 (14.3) n (%)
same,Patients with any AE,Panel 1: MK-5108 MT (n = 14),14 (100.0) n (%)
same,Patients with drug-related AE,Panel 1: MK-5108 MT (n = 14),8 (57.1) n (%)
same,Patients with no AE,Panel 1: MK-5108 MT (n = 14),0 n
same,Patients with serious AE,Panel 1: MK-5108 MT (n = 14),4 (28.6) n (%)
same,Patients with serious drug-related AE,Panel 1: MK-5108 MT (n = 14),0 n (%)
same,patients experiencing a DLT,"Panel 2 (CT), 100 mg Q12hr (200 mg/day), febrile neutropenia (Grade 3)",one patient
same,patients experiencing any DLTs,"Panel 2 (CT), 150 mg Q12hr, 6 patients",None
same,DLTs,"Panel 2 (CT), 225 mg Q12hr (450 mg/day), febrile neutropenia (Grade 4) and infection (Grade 3)",2
same,AEs (all grades and doses) by SOC: Gastrointestinal disorders,"Panel 2 (CT), 12/17",70.6%
same,AEs (all grades and doses) by SOC: Metabolism and nutrition disorders,"Panel 2 (CT), 12/17",70.6%
same,AEs (all grades and doses) by SOC: Skin and subcutaneous tissue disorders,"Panel 2 (CT), 12/17",70.6%
